Source: the NIST ThermoML archive (doi:10.1021/je700260f)

Settings: 283.15 K, Liquid, Vibrating tube method

FC(C(F)(F)F)C(F)(F)F [1,1,1,2,3,3,3-heptafluoropropane]
Settings	mass density [kg/m3]
6297 kPa	1481.2
6322 kPa	1481.4
6344 kPa	1481.4
6375 kPa	1481.6
6406 kPa	1481.7
6431 kPa	1481.9
6461 kPa	1481.9
6486 kPa	1482.3
6517 kPa	1482.3
6547 kPa	1482.4
6577 kPa	1482.5
6611 kPa	1482.7
6635 kPa	1482.9
6659 kPa	1483.1
6686 kPa	1483.1
6713 kPa	1483.1
6738 kPa	1483.2
6762 kPa	1483.3
6790 kPa	1483.5
6822 kPa	1483.7
6853 kPa	1483.9
6877 kPa	1484
6913 kPa	1484.2
6937 kPa	1484.3
6998 kPa	1484.5
7022 kPa	1484.7
7050 kPa	1484.8
7079 kPa	1485
7107 kPa	1485
7134 kPa	1485.2
7154 kPa	1485.2
7185 kPa	1485.5
7209 kPa	1485.6
7237 kPa	1485.7
7266 kPa	1485.9
7293 kPa	1485.9
7325 kPa	1486.1
7349 kPa	1486.2
7385 kPa	1486.3
7415 kPa	1486.5
7443 kPa	1486.7
8348 kPa	1490.8
8383 kPa	1491.1
8413 kPa	1491.1
8453 kPa	1491.2
8481 kPa	1491.5
8520 kPa	1491.6
8545 kPa	1491.6
8576 kPa	1491.9
8606 kPa	1492
8641 kPa	1492.2
8667 kPa	1492.3
8702 kPa	1492.4
8724 kPa	1492.5
8755 kPa	1492.6
8782 kPa	1492.8
8808 kPa	1492.9
8841 kPa	1492.9
8868 kPa	1493.1
8904 kPa	1493.4
8936 kPa	1493.4
8973 kPa	1493.5
9000 kPa	1493.8
9041 kPa	1493.9
9068 kPa	1494
9104 kPa	1494.2
9140 kPa	1494.3
9167 kPa	1494.5
9194 kPa	1494.6
9230 kPa	1494.7
9266 kPa	1495
9294 kPa	1495.1
9330 kPa	1495.1
9361 kPa	1495.3
9403 kPa	1495.5
9441 kPa	1495.7
9483 kPa	1495.8
9641 kPa	1496.6
9679 kPa	1496.6
9707 kPa	1496.9
9754 kPa	1497
9777 kPa	1497.2
9809 kPa	1497.3
9842 kPa	1497.5
9875 kPa	1497.5
9912 kPa	1497.8
9941 kPa	1497.8
9979 kPa	1498
10009 kPa	1498.1
10055 kPa	1498.3
10080 kPa	1498.4
10109 kPa	1498.5
10139 kPa	1498.7
10164 kPa	1498.8
10198 kPa	1499
10233 kPa	1499.2
10254 kPa	1499.2
10289 kPa	1499.3
10314 kPa	1499.5
10348 kPa	1499.7
10370 kPa	1499.7
10399 kPa	1499.7
10424 kPa	1500.1
